According to BigSolDB 2.1:

## O=C(NC[C@H]1CN(c2ccc(N3CCOCC3=O)cc2)C(=O)O1)c1ccc(Cl)s1
In dichloromethane, 283.15 K
  solubility (mole fraction): 0.000254
In dichloromethane, 288.15 K
  solubility (mole fraction): 0.00028
In dichloromethane, 293.15 K
  solubility (mole fraction): 0.000308
In dichloromethane, 298.15 K
  solubility (mole fraction): 0.000338
In dichloromethane, 303.15 K
  solubility (mole fraction): 0.00037
In dichloromethane, 308.15 K
  solubility (mole fraction): 0.000403
In ethanol, 283.15 K
  solubility (mole fraction): 1.21e-05
In ethanol, 288.15 K
  solubility (mole fraction): 1.46e-05
In ethanol, 293.15 K
  solubility (mole fraction): 1.75e-05
In ethanol, 298.15 K
  solubility (mole fraction): 2.09e-05
In ethanol, 303.15 K
  solubility (mole fraction): 2.5e-05
In ethanol, 308.15 K
  solubility (mole fraction): 2.94e-05
In methanol, 283.15 K
  solubility (mole fraction): 2.41e-05
In methanol, 288.15 K
  solubility (mole fraction): 2.97e-05
In methanol, 293.15 K
  solubility (mole fraction): 3.63e-05
In methanol, 298.15 K
  solubility (mole fraction): 4.42e-05
In methanol, 303.15 K
  solubility (mole fraction): 5.29e-05
In methanol, 308.15 K
  solubility (mole fraction): 6.36e-05
In n-butanol, 283.15 K
  solubility (mole fraction): 5.56e-06
In n-butanol, 288.15 K
  solubility (mole fraction): 7.84e-06
In n-butanol, 293.15 K
  solubility (mole fraction): 1.08e-05
In n-butanol, 298.15 K
  solubility (mole fraction): 1.48e-05
In n-butanol, 303.15 K
  solubility (mole fraction): 2.01e-05
In n-butanol, 308.15 K
  solubility (mole fraction): 2.73e-05
In n-propanol, 283.15 K
  solubility (mole fraction): 7.99e-06
In n-propanol, 288.15 K
  solubility (mole fraction): 1.05e-05
In n-propanol, 293.15 K
  solubility (mole fraction): 1.37e-05
In n-propanol, 298.15 K
  solubility (mole fraction): 1.77e-05
In n-propanol, 303.15 K
  solubility (mole fraction): 2.26e-05
In n-propanol, 308.15 K
  solubility (mole fraction): 2.88e-05
